# Measured values reported in patent US20220024905A1, “CRYSTALLINE FORM OF PROPANAMIDE DERIVATIVE AND PREPARATION METHOD THEREFOR” (NHWA PHARMA. CORPORATION, priority 2018, published 2022).
# Like-named read-outs stand apart in the source and are kept apart here.
# Tests used:
# [1] = Crystalline stability: stability factors test at high humidity, high temperature and light (PXRD and HPLC content); format: physicochemical; details: for Content (%): HPLC content (w/w, %); for Crystal form: PXRD; for content (all conditions) / morphology of crystal form: high humidity, high temperature and light, each for 10 days
# Text: The samples were taken at day 5 and day 10 respectively for PXRD (polycrystalline X ray diffraction) detection and HPLC content (w/w, %) determination, and the results were compared with that of day 0.
# [2] = Mechanical stress of the crystal form (ball milling, PXRD); format: physicochemical; details: for Crystal form after ball milling: ball mill 400 r/min, PXRD, duplicate mortars; for change of crystal form under ball milling pressure: ball milled for 30 min, 4 h and 6 h
# Experimental: Samples were taken when the ball milled at 30 min, 4 h and 6 h respectively, and then for PXRD test. The change of crystal form was observed, and the experiment was carried out parallelly in duplicate.
# [3] = Pharmacokinetics of Crystal Form A and Crystal Form B capsules in beagle dogs; format: in vivo
# Experimental: There were 12 beagle dogs for the experiment, half male and half female, weighing 11.0-14.1 kg, provided by the Teaching and Experimental Ground of Agricultural College of Shanghai Jiao Tong University. The animals were raised in single cage, and the feeding amount can be adjusted according to the weight or feed intake of the animals. The animals can drink water freely, with 12/12 h light/dark cycle adjustment, constant temperature of 23±1° C., humidity of 50-60%. On the day of administration, the experimental animals were fasted overnight before administration. […] The animals were weighed on the day of administration, and the dosage was determined according to their body weight. The above-mentioned grouped beagle dogs were administered according to the method in Table 5 below. [table] 1 mL of whole blood was collected from the cephalic vein at blood collection time points of 0.0830, 0.250, 0.500, 1.00, 2.00, 4.00, 8.00, 24.00 h after administration. […] The analytical method was performed by liquid chromatography tandem triple quadrupole mass spectrometry (LC MS/MS). […] The peak concentration (Cmax) and the peak time (Tmax) were obtained from the plasma concentration-time curve graph. The log-linear trapezoidal method (see: Gabrielsson J, Weiner D. Pharmacokinetic and pharmacodynamic data analysis: concepts and applications[M]. CRC Press, 2001, pages 141-146) was used to calculate the following parameters: elimination phase half-life (T1/2), mean retention time extrapolated from zero time point to infinity (MRT0-inf), mean retention time from zero time point to the last detectable concentration time point (MRT0-last), the area under the plasma concentration-time curve from the zero time point to the last detectable concentration time point (AUC0-last), and the area under the plasma concentration-time curve extrapolated from the zero time point to infinity (AUC0-inf). The experimental data was expressed as the mean (Mean)±standard deviation (S.D.). The excel software t-test was used for statistical comparison.
# [4] = Day 10 at high humidity (R.H. 92.5%)
# [5] = Day 10 at high temperature (60° C.)
# [6] = beagle dogs, PO 5 mg/kg, capsule, n = 6
# [7] = beagle dogs, PO 5 mg/kg, capsule, x ± s, n = 6
SMILES,Content (%) ([1]; Day 0),Crystal form ([1]; Day 0),"Content (%) [1, 4]","Crystal form [1, 4]","Content (%) [1, 5]","Crystal form [1, 5]",Content (%) ([1]; Day 10 at light (4500±500 lx)),Crystal form ([1]; Day 10 at light (4500±500 lx)),content (all conditions) [1],morphology of crystal form [1],Crystal form after ball milling ([2]; 30 min),Crystal form after ball milling ([2]; 4 h),Crystal form after ball milling ([2]; 6 h),change of crystal form under ball milling pressure [2],also measured
"CN1CCc2ccc(OCCCN3CCC(c4noc5cc(F)ccc45)CC3)cc2C1=O [Crystal Form A, 7-(3-(4-(6-fluorobenzo[d]isoazol-3-yl)piperidin-1-yl)propoxy)-2-methyl-3,4-dihydroisoquinolin-1(2H)-one]",97.21%,Crystal Form A,97.18%,Crystal Form A,97.15%,Crystal Form A,97.13%,Crystal Form A,≥ 97.0%,stable,Crystal Form A,Crystal Form A,Crystal Form A,its crystal form did not change,"half-life ([3]; both sexes, beagle, dog, plasma, po, 5 mg/kg, beagle dogs, PO 5 mg/kg, capsule, n = 6): 2.9 h; Tmax ([3]; both sexes, beagle, dog, plasma, po, 5 mg/kg, beagle dogs, PO 5 mg/kg, capsule, n = 6, read-out: Tmax): 2.6 h; AUC(0-t) ([3]; both sexes, beagle, dog, plasma, po, 5 mg/kg, beagle dogs, PO 5 mg/kg, capsule, x ± s, n = 6): 2840 ± 77.8 ng·h/mL; AUC0-inf ([3]; both sexes, beagle, dog, plasma, po, 5 mg/kg, beagle dogs, PO 5 mg/kg, capsule, x ± s, n = 6, read-out: AUC0-inf): 2990 ± 82 ng·h/mL; Cmax ([3]; both sexes, beagle, dog, plasma, po, 5 mg/kg, beagle dogs, PO 5 mg/kg, capsule, x ± s, n = 6, read-out: Cmax): 645 ± 37.2 ng/mL; bioavailability ([3]; both sexes, beagle, dog, plasma, po, 5 mg/kg, read-out: relative bioavailability (F)): 137%"
"CN1CCc2ccc(OCCCN3CCC(c4noc5cc(F)ccc45)CC3)cc2C1=O [Crystal Form B, 7-(3-(4-(6-fluorobenzo[d]isoazol-3-yl)piperidin-1-yl)propoxy)-2-methyl-3,4-dihydroisoquinolin-1(2H)-one]",96.70%,Crystal Form B,96.67%,Crystal Form B +,96.65%,Crystal Form B +,96.69%,Crystal Form B +,≥ 96.0%,could not remain stable,Crystal Form B,Crystal Form B +,Crystal Form B +,its crystal form changed significantly,"T1/2 [3, 6]: 2.1 h; Tmax [3, 6]: 1.7 h; AUC0-inf [3, 7]: 2186 ± 82.1 ng·h/mL; AUC0-last [3, 7]: 2039 ± 81.9 ng·h/mL; Cmax [3, 7]: 426 ± 32.75 ng/mL"
